Active and inactive are the calls of the source.
Columns and labels:
[1] = molecular target: Botulinum neurotoxin type F (Clostridium botulinum, UniProt P30996); assay: High-throughput multiplex microsphere dose response for inhibitors of toxin protease, specifically Botulinum neurotoxin light chain F protease, compounds from Cherry Pick 02.; format: functional; conditions: read-out: EC50_MICROM
Beta-lactamase [2] = molecular target: Beta-lactamase (Salmonella choleraesuis (strain SC-B67), UniProt Q5J463); assay: Epi-absorbance-based counterscreen for selective VIM-2 inhibitors: dose response biochemical high throughput screening assay to identify inhibitors of TEM-1 serine-beta-lactamase.
Beta-lactamase [3] = molecular target: T1, Beta-lactamase (Pseudomonas aeruginosa, UniProt Q79MP6); assay: inhibition of IMP-1 beta-lactamase activity – biochemical, epi-absorbance, selectivity assay for VIM-2 inhibitor project, dose response (AID 1920)
Beta Lactamase [4] = molecular target: T2, Beta Lactamase (Pseudomonas aeruginosa, UniProt Q932Y6); assay: concentration-dependent VIM-2 enzyme inhibition – biochemical, epi-absorbance readout, selective inhibitors, dose response (AID 1919)
Beta-lactamase [5] = molecular target: T1, Beta-lactamase; assay: […] counterscreen for selective VIM-2 inhibitors: dose response biochemical high throughput screening assay to identify inhibitors of IMP-1 metallo-beta-lactamase.
Beta Lactamase [6] = molecular target: T2, Beta Lactamase; assay: VIM-2 CCF2 hydrolysis inhibition, assay artifact filter – biochemical, FRET readout, CCF2 substrate, artefact control for selective VIM-2 inhibitor project, dose response (AID 1926)
Protein S100-A4 = Protein S100-A4 (Homo sapiens, UniProt P26447); assay: human S100A4 peptide interaction inhibition curves – biochemical, fluorescence polarization, cherry-picked hits, dose response (AID 687001); format: functional
[7] = molecular target: T3, Replicative DNA helicase DnaB (Mycobacterium tuberculosis, UniProt P9WMR3); assay: DnaB intein splicing inhibitors, dose response, biochemical, cell-free fluorescence (AID 449749); format: functional
T3 sequence (P9WMR3 whole entry): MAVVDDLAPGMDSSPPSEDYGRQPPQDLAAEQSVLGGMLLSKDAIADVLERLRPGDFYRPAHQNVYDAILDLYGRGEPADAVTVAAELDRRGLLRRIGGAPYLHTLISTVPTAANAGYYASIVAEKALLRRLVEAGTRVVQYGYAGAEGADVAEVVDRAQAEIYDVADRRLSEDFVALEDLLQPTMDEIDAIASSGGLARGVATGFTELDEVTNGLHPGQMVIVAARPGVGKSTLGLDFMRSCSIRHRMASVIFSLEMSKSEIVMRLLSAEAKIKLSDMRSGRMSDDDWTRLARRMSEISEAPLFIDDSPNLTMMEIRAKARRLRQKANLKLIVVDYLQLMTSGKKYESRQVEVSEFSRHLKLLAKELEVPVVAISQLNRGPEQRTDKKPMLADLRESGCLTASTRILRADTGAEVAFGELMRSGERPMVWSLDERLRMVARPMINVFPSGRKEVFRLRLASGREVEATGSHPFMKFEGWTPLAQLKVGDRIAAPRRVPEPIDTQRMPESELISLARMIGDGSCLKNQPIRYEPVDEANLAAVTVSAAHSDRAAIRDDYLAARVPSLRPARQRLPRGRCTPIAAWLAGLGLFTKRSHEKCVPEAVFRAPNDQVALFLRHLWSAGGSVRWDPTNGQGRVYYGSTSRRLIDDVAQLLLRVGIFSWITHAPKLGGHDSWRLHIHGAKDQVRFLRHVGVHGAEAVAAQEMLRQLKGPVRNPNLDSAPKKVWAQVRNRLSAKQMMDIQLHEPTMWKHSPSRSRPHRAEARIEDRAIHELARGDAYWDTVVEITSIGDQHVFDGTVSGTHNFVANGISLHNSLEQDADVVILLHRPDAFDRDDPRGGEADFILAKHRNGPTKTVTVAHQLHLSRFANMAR

Vero = assay: viability of Vero cells under compound – cytotoxicity control for flavivirus capping enzyme inhibitors (AID 588742); format: functional; conditions: Chlorocebus sabaeus
Protein RecA = molecular target: T4, Protein RecA (Mycobacterium tuberculosis, UniProt P9WHJ3); assay: Fluorescence Cell-Free Homogeneous Dose Retest to Identify Inhibitors of RecA-Intein Splicing Activity. [Related pubchem assays (depositor defined):AID2097, AID2223, AID489010, AID492950]; format: functional
T4 sequence (P9WHJ3 whole entry): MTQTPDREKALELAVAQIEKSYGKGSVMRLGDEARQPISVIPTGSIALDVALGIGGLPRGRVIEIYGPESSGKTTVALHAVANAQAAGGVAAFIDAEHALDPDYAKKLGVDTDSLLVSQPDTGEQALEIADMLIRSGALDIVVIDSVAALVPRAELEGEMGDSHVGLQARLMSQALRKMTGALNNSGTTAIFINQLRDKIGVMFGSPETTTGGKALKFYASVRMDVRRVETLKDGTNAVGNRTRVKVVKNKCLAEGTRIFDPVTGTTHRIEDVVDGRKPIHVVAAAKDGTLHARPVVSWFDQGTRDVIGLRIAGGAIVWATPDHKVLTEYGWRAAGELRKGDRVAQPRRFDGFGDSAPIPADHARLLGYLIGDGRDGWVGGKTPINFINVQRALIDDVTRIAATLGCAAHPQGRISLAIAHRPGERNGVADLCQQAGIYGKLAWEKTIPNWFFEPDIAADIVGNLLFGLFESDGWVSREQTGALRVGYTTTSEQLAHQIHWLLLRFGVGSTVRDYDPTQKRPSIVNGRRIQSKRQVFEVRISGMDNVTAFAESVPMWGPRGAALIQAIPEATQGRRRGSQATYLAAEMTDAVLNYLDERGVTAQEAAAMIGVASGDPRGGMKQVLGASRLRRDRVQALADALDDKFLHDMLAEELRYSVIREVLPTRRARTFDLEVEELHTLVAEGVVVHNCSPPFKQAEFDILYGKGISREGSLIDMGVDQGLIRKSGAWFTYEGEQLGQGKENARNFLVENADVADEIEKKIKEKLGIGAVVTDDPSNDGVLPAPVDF

[8] = molecular target: T5, Sentrin-specific protease 8 (Homo sapiens, UniProt Q96LD8); format: functional
T5 sequence (Q96LD8 whole entry): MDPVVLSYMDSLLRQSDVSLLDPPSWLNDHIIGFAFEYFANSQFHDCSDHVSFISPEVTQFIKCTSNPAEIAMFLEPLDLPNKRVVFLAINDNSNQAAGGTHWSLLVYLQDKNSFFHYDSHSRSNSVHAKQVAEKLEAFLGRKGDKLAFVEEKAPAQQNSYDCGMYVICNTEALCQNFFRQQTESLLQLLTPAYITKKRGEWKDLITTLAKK

[9] = molecular target: T5, Sentrin-specific protease 8; format: functional; remark: listed apart in the source
Caspase-3 = molecular target: T6, Caspase-3 (Homo sapiens, UniProt P42574); assay: Dose-response confirmation of uHTS inhibitor hits of Sentrin-Specific Protease 8 in a Caspase-3 Fluorescence assay.; format: functional
T6 sequence (P42574 whole entry): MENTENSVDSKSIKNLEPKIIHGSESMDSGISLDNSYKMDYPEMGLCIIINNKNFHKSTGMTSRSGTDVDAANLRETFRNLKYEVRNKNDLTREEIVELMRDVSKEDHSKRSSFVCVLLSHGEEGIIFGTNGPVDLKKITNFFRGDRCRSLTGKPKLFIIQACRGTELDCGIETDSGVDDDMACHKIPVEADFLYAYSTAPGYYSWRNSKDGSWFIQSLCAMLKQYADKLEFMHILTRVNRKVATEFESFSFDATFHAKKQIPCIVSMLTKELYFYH

[10] = Late stage assay provider results from the probe development effort to identify inhibitors of the Plasmodium falciparum M17 Leucine Aminopeptidase (M17LAP): radiolabel-based cell-based dose response assay to identify compounds that inhibit P. falciparum growth in RBCs Set 2.; format: functional
[11] = anti-trypanosomal activity in BESM host cells – imaging, CA-I/72 strain, bovine embryo skeletal muscle, dry powder, dose response (AID 651885); format: functional, cell-based

T1 sequence (Q79MP6 whole entry): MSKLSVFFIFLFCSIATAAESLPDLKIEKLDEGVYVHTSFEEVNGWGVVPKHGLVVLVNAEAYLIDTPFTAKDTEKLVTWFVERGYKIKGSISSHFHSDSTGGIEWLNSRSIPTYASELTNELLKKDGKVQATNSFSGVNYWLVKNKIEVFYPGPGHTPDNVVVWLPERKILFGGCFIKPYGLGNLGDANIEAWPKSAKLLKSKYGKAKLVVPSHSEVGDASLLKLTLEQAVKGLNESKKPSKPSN
T2 sequence (Q932Y6 whole entry): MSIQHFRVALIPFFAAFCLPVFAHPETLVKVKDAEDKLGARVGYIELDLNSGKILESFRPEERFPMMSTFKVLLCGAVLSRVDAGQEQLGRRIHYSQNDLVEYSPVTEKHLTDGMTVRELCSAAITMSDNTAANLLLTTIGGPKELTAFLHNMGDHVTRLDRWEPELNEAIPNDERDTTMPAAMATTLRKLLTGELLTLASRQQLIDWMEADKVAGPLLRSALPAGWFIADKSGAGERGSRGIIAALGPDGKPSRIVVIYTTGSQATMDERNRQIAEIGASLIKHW
Chain of Beta-lactamase (Salmonella choleraesuis (strain SC-B67), UniProt Q5J463) (Q5J463 whole entry): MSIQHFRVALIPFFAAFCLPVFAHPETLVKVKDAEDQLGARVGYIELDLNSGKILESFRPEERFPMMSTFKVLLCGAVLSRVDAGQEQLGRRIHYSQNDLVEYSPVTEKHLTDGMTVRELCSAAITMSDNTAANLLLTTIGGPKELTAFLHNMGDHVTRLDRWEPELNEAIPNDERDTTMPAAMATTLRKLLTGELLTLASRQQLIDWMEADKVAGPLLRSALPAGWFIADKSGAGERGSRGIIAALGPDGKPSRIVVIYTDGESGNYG
Chain of Protein S100-A4 (P26447 whole entry): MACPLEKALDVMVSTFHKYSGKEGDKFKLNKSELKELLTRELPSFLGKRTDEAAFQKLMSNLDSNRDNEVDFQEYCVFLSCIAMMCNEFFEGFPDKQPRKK
Chain of Botulinum neurotoxin type F (P30996 1-436 limits assumed): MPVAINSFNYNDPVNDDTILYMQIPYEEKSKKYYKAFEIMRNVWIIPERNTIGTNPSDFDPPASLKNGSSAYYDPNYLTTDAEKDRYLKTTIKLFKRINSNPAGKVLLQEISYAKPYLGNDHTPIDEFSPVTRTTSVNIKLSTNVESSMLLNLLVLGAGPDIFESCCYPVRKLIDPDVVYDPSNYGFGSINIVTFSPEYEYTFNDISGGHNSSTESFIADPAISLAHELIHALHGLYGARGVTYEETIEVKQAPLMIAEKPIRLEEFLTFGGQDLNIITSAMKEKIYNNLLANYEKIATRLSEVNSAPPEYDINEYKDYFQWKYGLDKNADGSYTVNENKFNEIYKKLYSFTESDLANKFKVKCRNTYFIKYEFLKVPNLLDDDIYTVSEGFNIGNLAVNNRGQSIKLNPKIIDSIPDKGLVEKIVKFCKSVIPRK

Compound: COc1cccc(C(=O)OCC(=O)c2c[nH]c3ccccc23)c1O
- EC50 [1]: > 20 µM (inactive)

Compound: O=C(C1=C(O)C(=O)N(Cc2cccnc2)C1c1ccccn1)c1cccs1 (stereo not given)
- IC50 (Beta-lactamase [2]): > 59.6 µM (inactive)
- IC50 (Beta-lactamase [3]): > 59.6 µM (inactive)
- IC50 (Beta Lactamase [4]): 13.2 µM (inactive)
- IC50 (Beta-lactamase [5]): > 59.6 µM (inactive)
- IC50 (Beta Lactamase [6]): 4.83 µM (active)

Compound: CN(C)c1ccc(C=Cc2nccc3ccccc23)cc1
- AC50 (Protein S100-A4): 0.774 µM (active)

Compound: COc1ccc(/C=N/NC(=O)c2nn(-c3ccc(Cl)cc3)c(=O)c3c(N)scc23)cc1
- AC50 [7]: > 380 µM (inactive)
- CC50 (Vero): 22 µM (active)
- EC50 (Protein RecA): 4.62 µM (active)
- IC50 [8]: 2.03 µM (active)
- IC50 [9]: 0.967 µM (active)
- IC50 (Caspase-3): 11.9 µM (active)

Compound: CCCCOc1ccc(CN(O)C(=O)c2ccccc2)cc1
- IC50 [10]: 13.6 µM (inactive)

Compound: CNC[C@H]1Oc2c(NC(=O)c3ccccc3)cccc2C(=O)N(C(C)C)C[C@@H]1C
- IC50 [11]: > 20 µM (inactive)

— ChEMBL document CHEMBL1201862, “PubChem BioAssay data set” (2004)
